In publication PMC5703532, “Establishment of an indirect ELISA for detection of the novel antifibrotic peptide M10” (PLoS ONE, 2017):
Peptide text beside a SMILES is read from it.

What was measured:
[1] = test system: caspases, thrombin, factor Xa, trypsin and granzyme B; settings: cited from earlier work
in vivo = settings: both, C57BL/6, mouse, ip, 1 mg/kg
Procedure: (§2) Mice (n = 30), C57BL/6 males and females 8–10 weeks old weighing 20–25 g, purchased from Jackson Laboratories (Bar Harbor, ME) were used in this study. Mice were housed in ventilated racks in specific pathogen free conditions and were provided with food and water available ad libitum. M10 peptide was solubilized in water and administered intraperitoneally in a dose of 1 mg/kg. Mice were sacrificed by isoflurane overdose, and blood samples were collected by cardiac puncture in the presence of 0.01% of Na-Citrate at time intervals of 15 min, 30 min, 1, 2, 4, 6, 12, 24, and 48 hours after injection. The blood samples (n = 3/group) were centrifuged at 2500 rpm for 10 min, and plasma samples were stored at -80°C. Plasma samples collected from mice injected with water intraperitoneally (n = 3) were used as a negative control.
(§3) M10 concentration was measured by indirect ELISA developed in our laboratory. Known concentrations of pharmaceutical grade M10 peptide (GenScript, Piscataway, NJ) with purity more than 98% were used to generate the standard curve. Briefly, 100μl of known concentration of M10 (range: 10 ng/ml to 500 ng/ml), blank (PBS without M10), and 100μl of the diluted plasma sample were plated in triplicate in high-affinity polystyrene micro-titer plates. Samples were incubated with gentle rocking overnight at 4°C and blocked with 5% bovine serum albumin in PBS. After washing, samples were incubated for 2 hours at room temperature with anti-cMET rabbit antibody (Santa Cruz Biotechnology, Santa Cruz, CA), followed by 1hour incubation with HRP-conjugated anti-Rabbit IgG (Rockland, Limerick, PA). M10 was detected with ultra-TMB (3, 3’, 5, 5’-tetramethylbenzidine)-substrate, and the reaction was terminated by using 2M sulfuric acid. Absorbance was measured at 450 nm by Spectra Max Plus spectrophotometer. Concentrations of unknown samples were then calculated from their corresponding optical density (OD) values by Softmax Pro 4.8 software (Molecular Devices, Sunnyvale, CA) using the standard curve generated from the known concentrations of M10. Control plasma samples collected from mice with intraperitoneal water injection were run in triplicate with each experiment, mean was calculated, and samples were normalized by subtracting the negative control mean value. Final concentrations were calculated by adjusting the sample dilution factor.
(§4) To obtain the pharmacokinetic profile of M10 in mouse plasma, C57Bl6 mice were injected intraperitoneally with M10 at a dose of 1mg/kg of body weight. Plasma samples were collected by cardiac puncture in the presence of 0.01% of Na-Citrate at time intervals of 15 min, 30 min, 1h, 2h, 4h, 6h, 12 h, 24 h, and 48 h following injection. Samples were diluted in PBS in order to fit within the range of the standard curves and then tested using the M10 ELISA. Concentration of M10 in plasma samples was calculated by Softmax Pro 4.8 software using the standard curve generated from the known concentration of M10. The samples were normalized by subtracting the negative controls represented by plasma samples obtained from mice injected with H2O.

[2] = test system: human lung and skin fibroblasts; settings: cited from earlier work
Source text: (§1) We recently discovered a 10 amino acid antifibrotic peptide (M10) with antifibrotic properties in vitro and in a murine model of lung fibrosis, which is a natural cleavage product by caspase-3 of the cytoplasmic tail of the c-MET receptor tyrosine kinase. Following binding of hepatocyte growth factor (HGF), c-MET undergoes auto phosphorylation at tyrosine residues in its cytoplasmic domain and initiates a cascade of signal transduction events leading to specific cellular responses implicated in embryonic development and tissue regeneration after injury.

[3] = test system: bleomycin-induced mouse model of lung fibrosis; settings: cited from earlier work
Source text: as §1

Smad2 = settings: cited from earlier work
Source text: as §1

[4] = in vivo, ip, 1 mg/kg
Procedure: as §2, §3, §4

[5] = Mean M10 concentration in plasma

Compound: C[C@H](NC(=O)[C@@H]1CCCN1C(=O)[C@H](CCCNC(=N)N)NC(=O)[C@@H](N)[C@@H](C)O)C(=O)N[C@@H](CO)C(=O)N[C@@H](Cc1ccccc1)C(=O)N[C@@H](Cc1c[nH]c2ccccc12)C(=O)N[C@@H](CCC(=O)O)C(=O)N[C@H](C(=O)N[C@@H](CO)C(=O)O)[C@@H](C)O [M10] (H-TRPASFWETS-OH; N-terminus and C-terminus assumed)
- Resistance to mammalian proteases [1]: resistance to many mammalian proteases
- AUC(0-t) (in vivo): 72500 ± 2390 ng·h/mL
- Tmax (in vivo): 6 h
- half-life (in vivo): 6.8 ± 0.7 h
- level at 4 h (in vivo; [5]): 3590 ng/mL
- level at 6 h (in vivo; [5]): 4550 ng/mL
- level at 12 h (in vivo; [5]): 3140 ng/mL
- level at 24 h (in vivo; [5]): 801 ng/mL
- level at 48 h (in vivo; [5]): 366 ng/mL
- Effect on collagen [2]: reduces collagen
- Effect on collagen [3]: reduces collagen
- Interaction with Smad2 (Smad2): interacts with Smad2
- Mean M10 concentration in plasma ([4]; both, C57BL/6, mouse, 24 h): 1216 ng/mL
- Cmax (peak plasma concentration) ([4]; mouse): 4861.5 ± 11.5 ng/mL
- Time by which plasma concentration declined to minimal (detectable) levels ([4]; mouse): ≤ 48 h
